A value given as a limit tells only on which side of the number the result lay.

Test [1] has as its target human PDE-5A1 (Homo sapiens, UniProt O76074). The test can be described thus: Human PDE-5A1 inhibition assay (fluorescence polarization, FAM-cGMP). Conditions: read-out: IC50 (μM) PDE5A1. The class given is biochemical.
For test [2], the target named is human PDE-6C (Homo sapiens, UniProt P51160). The test is described as follows: Human PDE-6C inhibition assay (fluorescence polarization, FAM-cGMP). The class given is biochemical. Conditions: read-out: IC50 (μM) PDE6C.
Chain of human PDE-6C (P51160 whole entry): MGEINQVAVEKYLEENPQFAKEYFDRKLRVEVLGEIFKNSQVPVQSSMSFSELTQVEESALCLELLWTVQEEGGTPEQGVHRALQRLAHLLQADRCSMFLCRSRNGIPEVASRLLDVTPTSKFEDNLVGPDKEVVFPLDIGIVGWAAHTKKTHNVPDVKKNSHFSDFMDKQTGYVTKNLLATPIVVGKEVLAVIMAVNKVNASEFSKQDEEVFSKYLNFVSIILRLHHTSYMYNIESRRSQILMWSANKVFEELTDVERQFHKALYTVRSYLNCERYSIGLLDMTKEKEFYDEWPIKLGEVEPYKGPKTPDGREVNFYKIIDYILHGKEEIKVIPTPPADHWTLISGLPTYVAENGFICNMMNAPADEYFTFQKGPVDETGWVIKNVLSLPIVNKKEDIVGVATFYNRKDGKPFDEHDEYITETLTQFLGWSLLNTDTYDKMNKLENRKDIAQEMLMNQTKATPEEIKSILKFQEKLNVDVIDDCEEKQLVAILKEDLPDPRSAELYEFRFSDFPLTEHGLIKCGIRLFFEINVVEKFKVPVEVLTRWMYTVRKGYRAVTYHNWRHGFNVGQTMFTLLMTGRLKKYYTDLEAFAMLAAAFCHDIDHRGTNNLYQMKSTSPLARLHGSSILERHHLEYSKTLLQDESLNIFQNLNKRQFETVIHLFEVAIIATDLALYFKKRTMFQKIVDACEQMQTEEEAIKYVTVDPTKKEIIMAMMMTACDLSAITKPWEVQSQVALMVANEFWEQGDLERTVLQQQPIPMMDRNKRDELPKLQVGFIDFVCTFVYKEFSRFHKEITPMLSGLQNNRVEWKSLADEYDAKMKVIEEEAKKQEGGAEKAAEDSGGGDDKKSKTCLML

Take `CCCc1nn(C)c2c(=O)[nH]c(-c3cc(S(=O)(=O)N4CC(O)C4)ccc3OCC)nc12` [Compound 1, 5-(2-ethoxy-5-((3-hydroxyazetidin-1-yl)sulfonyl)phenyl)-1-methyl-3-propyl-1,6-dihydro-7H-pyrazolo[4,3-d] pyrimidin-7-one]: the IC50 in test [1] and in test [2] was 0.01 to 0.1 µM in each case.
With `CCCc1nn(C)c2c(=O)[nH]c(-c3cc(S(=O)(=O)N4CC(CO)C4)ccc3OCC)nc12` [Compound 2, 5-(2-ethoxy-5-((3-(hydroxymethyl)azetidin-1-yl)sulfonyl)phenyl)-1-methyl-3-propyl-1,6-dihydro-7H-pyrazolo[4,3-d]pyrimidin-7-one], the IC50 in test [1] and in test [2] was 0.01 to 0.1 µM in each case.
As to `CCCc1nn(C)c2c(=O)[nH]c(-c3cc(S(=O)(=O)N4CC(CCO)C4)ccc3OCC)nc12` [Compound 3, 5-(2-ethoxy-5-((3-(2-hydroxyethyl)azetidin-1-yl)sulfonyl)phenyl)-1-methyl-3-propyl-1,6-dihydro-7H-pyrazolo[4,3-d]pyrimidin-7-one], the IC50 in test [1] and in test [2] was under 0.01 µM throughout.
As for `CCCc1nn(C)c2c(=O)[nH]c(-c3cc(S(=O)(=O)N4CC(CN)C4)ccc3OCC)nc12` [Compound 5, 5-(5-((3-(aminomethyl)azetidin-1-yl)sulfonyl)-2-ethoxyphenyl)-1-methyl-3-propyl-1,6-dihydro-7H-pyrazolo[4,3-d] pyrimidin-7-one], the IC50 in test [1] is over 0.1 µM; in test [2], 0.01 to 0.1 µM.
In the same order, the values of `CCCc1nn(C)c2c(=O)[nH]c(-c3cc(S(=O)(=O)NC4CN(CCO)C4)ccc3OCC)nc12` [Compound 6, 4-ethoxy-N-(1-(2-hydroxyethyl)azetidin-3-yl)-3-(1-methyl-7-oxo-3-propyl-6,7-dihydro-1H-pyrazolo[4,3-d]pyrimidin-5-yl)benzenesulfonamide] are 0.01 to 0.1 µM and 0.01 to 0.1 µM.
In the case of `CCCc1nn(C)c2c(=O)[nH]c(-c3cc(S(=O)(=O)NC4CN(CCCO)C4)ccc3OCC)nc12` [Compound 7, 4-ethoxy-N-(1-(3-hydroxypropyl)azetidin-3-yl)-3-(1-methyl-7-oxo-3-propyl-6,7-dihydro-1H-pyrazolo[4,3-d]pyrimidin-5-yl)benzenesulfonamide], the IC50 in test [1] and in test [2] was 0.01 to 0.1 µM in each case.
Consider `CCCc1nn(C)c2c(=O)[nH]c(-c3cc(S(=O)(=O)NC4CN(CCCCO)C4)ccc3OCC)nc12` [Compound 8, 4-ethoxy-N-(1-(4-hydroxybutyl)azetidin-3-yl)-3-(1-methyl-7-oxo-3-propyl-6,7-dihydro-1H-pyrazolo[4,3-d]pyrimidin-5-yl)benzenesulfonamide], for which the IC50 in test [1] and in test [2] was 0.01 to 0.1 µM each time.
In the case of `CCCc1nn(C)c2c(=O)[nH]c(-c3cc(S(=O)(=O)N4CC(NCCO)C4)ccc3OCC)nc12` [Compound 9, 5-(2-ethoxy-5-((3-((2-hydroxyethyl)amino)azetidin-1-yl)sulfonyl)phenyl)-1-methyl-3-propyl-1,6-dihydro-7H-pyrazolo[4,3-d]pyrimidin-7-one], the IC50 in test [1] and in test [2] was 0.01 to 0.1 µM in each case.
Take `CCCc1nn(C)c2c(=O)[nH]c(-c3cc(S(=O)(=O)N4CC(NCCCCO)C4)ccc3OCC)nc12` [Compound 11, 5-(2-ethoxy-5-((3-((4-hydroxybutyl)amino)azetidin-1-yl)sulfonyl)phenyl)-1-methyl-3-propyl-1,6-dihydro-7H-pyrazolo[4,3-d]pyrimidin-7-one]: the IC50 in test [1] and in test [2] was 0.01 to 0.1 µM in each case.
As for `CCCc1nn(C)c2c(=O)[nH]c(-c3cc(S(=O)(=O)N4CC(N(C)CCO)C4)ccc3OCC)nc12` [Compound 12, 5-(2-ethoxy-5-((3-((2-hydroxyethyl)(methyl)amino)azetidin-1-yl)sulfonyl)phenyl)-1-methyl-3-propyl-1,6-dihydro-7H-pyrazolo[4,3-d]pyrimidin-7-one], the IC50 in test [1] and in test [2] was under 0.01 µM in each case.
As to `CCCc1nn(C)c2c(=O)[nH]c(-c3cc(S(=O)(=O)N4CC(N(C)CCCO)C4)ccc3OCC)nc12` [Compound 13, 5-(2-ethoxy-5-((3-((3-hydroxypropyl)(methyl)amino)azetidin-1-yl)sulfonyl)phenyl)-1-methyl-3-propyl-1,6-dihydro-7H-pyrazolo[4,3-d]pyrimidin-7-one], the IC50 is under 0.01 µM in test [1] and 0.01 to 0.1 µM in test [2].
On the same counts, the results for `CCCc1nn(C)c2c(=O)[nH]c(-c3cc(S(=O)(=O)N4CC(N(C)CCCCO)C4)ccc3OCC)nc12` [Compound 14, 5-(2-ethoxy-5-((3-((4-hydroxybutyl)(methyl)amino)azetidin-1-yl)sulfonyl)phenyl)-1-methyl-3-propyl-1,6-dihydro-7H-pyrazolo[4,3-d] pyrimidin-7-one] are under 0.01 µM and under 0.01 µM.
On the same counts, the results for `CCCc1nn(C)c2c(=O)[nH]c(-c3cc(S(=O)(=O)N4CC(O[N+](=O)[O-])C4)ccc3OCC)nc12` [Compound 15, 1-((4-ethoxy-3-(1-methyl-7-oxo-3-propyl-6,7-dihydro-1H-pyrazolo[4,3-d]pyrimidin-5-yl)phenyl)sulfonyl) azetidin-3-yl nitrate] are 0.01 to 0.1 µM and 0.01 to 0.1 µM.
For `CCCc1nn(C)c2c(=O)[nH]c(-c3cc(S(=O)(=O)N4CC(CO[N+](=O)[O-])C4)ccc3OCC)nc12` [Compound 16, (1-((4-ethoxy-3-(1-methyl-7-oxo-3-propyl-6,7-dihydro-1H-pyrazolo[4,3-d]pyrimidin-5-yl)phenyl)sulfonyl)azetidin-3-yl)methyl nitrate], the IC50 was under 0.01 µM in test [1] and 0.01 to 0.1 µM in test [2].
Consider `CCCc1nn(C)c2c(=O)[nH]c(-c3cc(S(=O)(=O)NC4CN(CCO[N+](=O)[O-])C4)ccc3OCC)nc12` [Compound 19, 2-(3-((4-ethoxy-3-(1-methyl-7-oxo-3-propyl-6,7-dihydro-1H-pyrazolo[4,3-d]pyrimidin-5-yl)phenyl)sulfonamido)azetidin-1-yl)ethyl nitrate], for which the half-maximal inhibitory concentration (IC50) in test [1] and in test [2] was under 0.01 µM each time.
Regarding `CCCc1nn(C)c2c(=O)[nH]c(-c3cc(S(=O)(=O)NC4CN(CCCO[N+](=O)[O-])C4)ccc3OCC)nc12` [Compound 20, 3-(3-((4-ethoxy-3-(1-methyl-7-oxo-3-propyl-6,7-dihydro-1H-pyrazolo[4,3-d]pyrimidin-5-yl)phenyl)sulfonamido)azetidin-1-yl)propyl nitrate], the IC50 in test [1] was 0.01 to 0.1 µM; in test [2], under 0.01 µM.
On the same counts, the results for `CCCc1nn(C)c2c(=O)[nH]c(-c3cc(S(=O)(=O)N4CC(NCCO[N+](=O)[O-])C4)ccc3OCC)nc12` [Compound 21, 2-((1-((4-ethoxy-3-(1-methyl-7-oxo-3-propyl-6,7-dihydro-1H-pyrazolo[4,3-d]pyrimidin-5-yl)phenyl)sulfonyl)azetidin-3-yl)amino)ethyl nitrate] are under 0.01 µM and under 0.01 µM.
Take `CCCc1nn(C)c2c(=O)[nH]c(-c3cc(S(=O)(=O)N4CC(N(C)CCO[N+](=O)[O-])C4)ccc3OCC)nc12` [Compound 23, 2-((1-((4-ethoxy-3-(1-methyl-7-oxo-3-propyl-6,7-dihydro-1H-pyrazolo[4,3-d]pyrimidin-5-yl)phenyl)sulfonyl)azetidin-3-yl)(methyl)amino)ethyl nitrate]: the IC50 in test [1] and in test [2] was under 0.01 µM throughout.
Consider `CCCc1nn(C)c2c(=O)[nH]c(-c3cc(S(=O)(=O)N4CC(N(C)CCCO[N+](=O)[O-])C4)ccc3OCC)nc12` [Compound 24, 3-((1-((4-ethoxy-3-(1-methyl-7-oxo-3-propyl-6,7-dihydro-1H-pyrazolo[4,3-d]pyrimidin-5-yl)phenyl)sulfonyl)azetidin-3-yl)(methyl)amino)propyl nitrate], for which the IC50 in test [1] is 0.01 to 0.1 µM; in test [2], under 0.01 µM.
On the same counts, the results for `CCCc1nn(C)c2c(=O)[nH]c(-c3cc(S(=O)(=O)N4CC(OCCO)C4)ccc3OCC)nc12` [Compound 25, 5-(2-ethoxy-5-((3-(2-hydroxyethoxy)azetidin-1-yl)sulfonyl)phenyl)-1-methyl-3-propyl-1,6-dihydro-7H-pyrazolo[4,3-d] pyrimidin-7-one] are 0.01 to 0.1 µM and 0.01 to 0.1 µM.
On the same counts, the results for `CCCc1nn(C)c2c(=O)[nH]c(-c3cc(S(=O)(=O)N4CC(OCCCO)C4)ccc3OCC)nc12` [Compound 26, 5-(2-ethoxy-5-((3-(3-hydroxypropoxy)azetidin-1-yl)sulfonyl)phenyl)-1-methyl-3-propyl-1,6-dihydro-7H-pyrazolo[4,3-d]pyrimidin-7-one] are 0.01 to 0.1 µM and 0.01 to 0.1 µM.
On the same counts, the results for `CCCc1nn(C)c2c(=O)[nH]c(-c3cc(S(=O)(=O)N4CC(OCCCCO)C4)ccc3OCC)nc12` [Compound 27, 5-(2-ethoxy-5-((3-(4-hydroxybutoxy)azetidin-1-yl)sulfonyl)phenyl)-1-methyl-3-propyl-1,6-dihydro-7H-pyrazolo[4,3-d]pyrimidin-7-one] are 0.01 to 0.1 µM and under 0.01 µM.
`CCCc1nn(C)c2c(=O)[nH]c(-c3cc(S(=O)(=O)N4CC(CN5CC(CO)C5)C4)ccc3OCC)nc12` [Compound 28, 5-(2-ethoxy-5-((3-((3-(hydroxymethyl)azetidin-1-yl)methyl)azetidin-1-yl)sulfonyl)phenyl)-1-methyl-3-propyl-1,6-dihydro-7H-pyrazolo[4,3-d] pyrimidin-7-one]: the IC50 in test [1] and in test [2] was 0.01 to 0.1 µM each time.
Consider `CCCc1nn(C)c2c(=O)[nH]c(-c3cc(S(=O)(=O)N4CC(CN5CC(CCO)C5)C4)ccc3OCC)nc12` [Compound 29, 5-(2-ethoxy-5-((3-((3-(2-hydroxyethyl)azetidin-1-yl)methyl)azetidin-1-yl)sulfonyl)phenyl)-1-methyl-3-propyl-1,6-dihydro-7H-pyrazolo[4,3-d]pyrimidin-7-one], for which the IC50 in test [1] and in test [2] was 0.01 to 0.1 µM throughout.
Regarding `CCCc1nn(C)c2c(=O)[nH]c(-c3cc(S(=O)(=O)N4CC(N(CCCO)CCCO)C4)ccc3OCC)nc12` [Compound 30, 5-(5-((3-(bis(3-hydroxypropyl)amino)azetidin-1-yl)sulfonyl)-2-ethoxyphenyl)-1-methyl-3-propyl-1,6-dihydro-7H-pyrazolo[4,3-d]pyrimidin-7-one], the IC50 in test [1] and in test [2] was under 0.01 µM throughout.

(Values after patent US20220153746A1, “NITROGEN OXIDE-DONATING PDE-5 AND/OR PDE-6 INHIBITOR COMPOUNDS, AND USES THEREOF” (ILDONG PHARMACEUTICAL CO., LTD., priority 2020, published 2022).)
